In ChEMBL document CHEMBL1201862, “PubChem BioAssay data set” (2004):
The source made the active and inactive calls. Rule as the data show it: actives have a measured IC50 and inactives only a lower limit.

Target: Envelope glycoprotein gp160 (Human immunodeficiency virus 1, UniProt Q6QLK5)
Assay: cell-free HIV fusion peptide-binding blockers – biochemical, uHTS, fluorescence dequenching, […] (AID 1986)

Sequence of Envelope glycoprotein gp160 (Q6QLK5 whole entry, the tested form may be a part): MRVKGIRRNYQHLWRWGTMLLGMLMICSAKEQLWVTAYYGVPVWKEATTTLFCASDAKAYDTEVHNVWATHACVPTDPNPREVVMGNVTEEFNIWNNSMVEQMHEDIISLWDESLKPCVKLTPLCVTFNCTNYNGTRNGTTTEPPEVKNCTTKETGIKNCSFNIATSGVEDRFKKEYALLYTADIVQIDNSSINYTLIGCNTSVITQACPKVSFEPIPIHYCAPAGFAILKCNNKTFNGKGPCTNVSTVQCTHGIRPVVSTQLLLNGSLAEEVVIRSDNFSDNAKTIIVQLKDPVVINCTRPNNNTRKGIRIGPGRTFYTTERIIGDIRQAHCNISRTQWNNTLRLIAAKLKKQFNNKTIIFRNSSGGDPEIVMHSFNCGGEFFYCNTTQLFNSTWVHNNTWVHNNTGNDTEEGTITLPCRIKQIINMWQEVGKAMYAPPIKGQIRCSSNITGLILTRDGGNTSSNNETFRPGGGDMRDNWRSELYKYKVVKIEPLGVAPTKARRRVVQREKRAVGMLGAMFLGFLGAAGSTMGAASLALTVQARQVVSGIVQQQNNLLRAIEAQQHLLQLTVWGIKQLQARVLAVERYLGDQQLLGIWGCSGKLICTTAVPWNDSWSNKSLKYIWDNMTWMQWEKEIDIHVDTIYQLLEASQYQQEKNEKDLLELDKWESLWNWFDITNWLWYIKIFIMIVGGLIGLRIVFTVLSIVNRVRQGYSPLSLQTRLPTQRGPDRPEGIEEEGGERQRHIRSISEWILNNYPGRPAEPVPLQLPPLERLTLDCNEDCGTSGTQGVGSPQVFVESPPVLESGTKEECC

O=C(Nc1cccc(C(F)(F)F)c1)c1cccc(NS(=O)(=O)c2ccc(O)c(C(=O)O)c2)c1
IC50: 8.83 µM (active)

COC(=O)c1sc(-c2ccc(C(C)(C)C)cc2)cc1NC(=O)COCC(=O)O
IC50: 20.9 µM (active)
